Data taken from patent US8728797B2, “Yeast membrane protein expression system and its application in drug screening” (priority 2001, dated 2014).
Values after ≈ are worked out from the molar mass of the structure shown.

What was measured:
[1] = tested on: S. cerevisiae AD1-8 sec6-4; assay: MIC microdilution test, sec6-4 host; assay type: cell-based; conditions: Saccharomyces cerevisiae, AD18SEC64, 30° C.
Experimental: (§1) The MICs of antifungal agents for S. cerevisiae cells were determined by a microdilution test based on the macrodilution reference method of the National Committee for Clinical Laboratory Standards. Cells (10 μl cell suspension, 2×10^5 cells/ml) were inoculated into 90 μl CSM-URA, buffered with 10 mM 2-(N-morpholino)ethanesulfonic acid (MES) and 18 mM N-2-hydroxyethylpiperazine-N′-2-ethanesulfonic acid (HEPES), pH 7.0 and containing 0.67% (w/v) yeast nitrogen base (YNB) in microtitre plate wells. For the uracil-requiring strain AD1-8u^− the medium was supplemented with 0.02% (w/v) uridine. The wells contained, in […], doubling dilutions of antifungal agents (final concentrations: fluconazole, 40-0.078 μg/ml; itraconazole and ketoconazole, 8-0.016 μg/ml). The microtitre plates were incubated at 30° C. for 48 h with shaking and then the growth of cells in individual wells (OD590) was measured with a microplate reader (EL 340, Bio-Tek, Winooski, Vt.). The MIC80 was the lowest concentration of drug that inhibited growth yield by at least 80% compared to a no-drug control.

[2] = tested on: S. cerevisiae AD1-8u^− hyper-expressing CDR1-1; assay: MIC, CDR1 allele 1 hyper-expressed; assay type: cell-based; conditions: Saccharomyces cerevisiae; hyper-expression of CDR1-1 allele
Experimental: as §1

[3] = tested on: SfiI-containing construct expressing Pdr5p; assay: MIC, SfiI-containing Pdr5p construct; assay type: cell-based, S. cerevisiae; conditions: low Pdr5p expression
Experimental: as §1

[4] = tested on: selected respiratory competent construct expressing Cdr1p; assay: MIC, corrected Cdr1p construct; assay type: cell-based, S. cerevisiae; conditions: Saccharomyces cerevisiae; construct corrected with linear PCR fragment
Experimental: as §1

[5] = tested on: AD-CDR1 (Cdr1p); assay: Disk diffusion assay, AD-CDR1; assay type: cell-based, S. cerevisiae; conditions: AD-pABC as negative control, 30° C., 48 h
Experimental: The cells were spread on CSM-agar plates and exposed to the drugs or chemicals applied to filter disks and incubated at 30° C. for 48 h. The amounts of individual drugs are given in the Materials and Methods section of Example 3. Rhodamine 6G and rhodamine 123 were dissolved in ethanol and the other antifungals were dissolved in DMSO.
Drug susceptibility was measured using disk assays on CSM-URA plates (containing 1.5% w/v agar). Yeast cells (200 μl ml of 5×10^6 cells/ml) were spread on the plates. 10 μl of drug solution or solvent control were spotted onto sterile Whatman paper disks on the pre-spread plates. The following amounts (nmoles) of drugs were applied to individual disks: fluconazole, 633 (Pfizer Ltd., Sandwich, Kent, United Kingdom); itraconazole, 0.23 (Janssen); miconazole, 0.42 (Janssen); cycloheximide, 0.71 (Sigma); rhodamine 6G, 100 (Sigma, Penrose, Auckland, N. Z.); rhodamine 123, 125 (Sigma); cerulenin 4.5 (Sigma); 5-flucytosine 100 (Sigma); amphotericin B, 97 (E. R. Squibb & Sons, Princeton, N.J.); nystatin 65 (Sigma). Agar plates were incubated at 30° C. for 48 h or until clear growth inhibition zones were visible.

[6] = tested on: AD1002 cells; assay: Glucose-dependent rhodamine 6G efflux; assay type: cell-based, S. cerevisiae; conditions: fluconazole 10 μM in preincubation and all later steps; 10 min after glucose
Experimental: The efflux of rhodamine 6G at 30° C. was followed by direct measurement of fluorescence in cell supernatants following glucose (2 mM) addition to cell suspensions. […] The indicated concentrations of KN20 were added to AD124567 cells preloaded with rhodamine 6G, the cells were preincubated for 5 minutes at 30° C. and glucose added to commence rhodamine efflux.
A previously described method (Kolaczkowski, M et al. 1996) was adapted to measure rhodamine 6G (Sigma) efflux from whole cells. Yeast cells from exponentially growing cultures in YEPD (OD600 nm=0.5) were collected by centrifugation (3,000×g, 5 min, 20° C.) and washed three times with water. The washed cells were resuspended at a concentration of 0.5×10^6 to 1.0×10^7 cells per ml in HEPES-NaOH (50 mM, pH 7.0) containing 5 mM 2-deoxyglucose and 10 μM rhodamine 6G. In some experiments fluconazole (10 μM) was also added. Cell suspensions were incubated at 30° C. with shaking for 90 min to allow rhodamine accumulation under glucose starvation conditions. The starved cells were washed twice in 50 mM HEPES-NaOH pH 7.0, and portions (400 μl) incubated at 30° C. for 5 min before addition of glucose (final concentration 2 mM) to initiate rhodamine efflux. […] The rhodamine 6G fluorescence of samples was measured using a Cary Eclipse spectrofluorimeter (Varian Inc, Victora Australia). […]

[7] = tested on: AD124567 (Pdr5p-overexpressing); assay: Disk drug susceptibility assay of chemosensitisation to fluconazole; assay type: cell-based, S. cerevisiae; conditions: 120 μg/ml fluconazole, 47 nanomole peptide on disk
Experimental: (A) Checkerboard drug susceptibility assay of AD124567 in the presence of the indicated concentrations of fluconazole and KN20. (B) Disk drug susceptibility assay of AD124567. This assay was conducted, as described in Materials and methods for example 4, in the absence or presence of fluconazole (120 μg/ml), and in the presence of (1) KN0 (47 nanomole), (2) KN20 (47 nanomole) or (0) control amounts of DMSO applied to disks
Drug susceptibility was measured using disk assays on CSM-URA plates (containing 1.5% w/v agar). Plates were seeded with yeast cells suspended in top agar (5 ml, 10^5 cells/ml). For the uracil-dependent parental strain, agar was supplemented with 0.02% uridine. Five microliters of drug solution or solvent control were spotted onto sterile Whatman paper disks on the top agar. […]

OC(Cn1cncn1)(Cn1cncn1)c1ccc(F)cc1F [fluconazole]
MIC80 [1]: 0.5 µg/mL (≈ 1.63 µM)
MIC [2]: 400 µg/mL (≈ 1310 µM)
MIC [3]: < 40 mu.g/ml
MIC [4]: 400 µg/mL (≈ 1310 µM)
resistance/sensitivity in disk diffusion assay [5]: resistances
reduction in the concentration of released rhodamine 6G [6]: 32%

D-octapeptide NH2-Asn-Trp-Trp-Lys-Val-Arg-Arg-Arg-CONH2 with a single 4-methoxy-2,3,6-trimethylbenzenesulphonyl (Mtr) substituent on one tryptophan sidechain; Pdr5p inhibitor [KN20]
chemosensitisation to fluconazole in disk assay [7]: chemosensitisation
